In US7429607B2, “5-HT2B receptor antagonists” (Asterand UK Limited, priority 2002, dated 2008):

Legend:
[1] = target: T1, human cloned 5-HT2B receptors (Homo sapiens, UniProt P41595); assay: Human cloned 5-HT2B cell-based functional assay (Fluo-4, CHO.K1 cells); details: inhibition of 5-HT response, CHO.K1 cells expressing cloned 5-HT2B, Fluo-4 AM
T1 construct: expressed in transfected cells; host or cells: CHO-K1 cells
Protocol: The following describes an in vitro functional assay using human cloned 5-HT2B receptors to determine the ability of compounds to block the receptor. CHO.K1 cells expressing cloned 5-HT2B receptor were maintained In Ultra-CHO medium containing 400 μg/ml of G418, 100 U/ml penicillin, 100 μg/ml streptomycin, 2.5 μg/ml fungizone, in 95/5% O2/CO2 at 37° C. Ultra-CHO medium additionally supplemented with 1% foetal bovine serum was used when seeding the cells and removed after 5 hours. Cells were plated in Costar 96 well white, clear-bottomed plate at a density of 50,000 cells per well and incubated for at least 24 hours in 95/5% O2/CO2 at 37° C. before running the assay. Media was removed from the wells and 200 μl of 4 μM Fluo-4 AM added, this was incubated in a Wallace Victor 2V workstation at 37° C. for 30 minutes. The Fluo-4 AM was then removed from the wells, which were then washed twice with 200 μl of buffer (HBSS without calcium/magnesium/phenol red, 20 mM HEPES, 1 mM Ca^2+, 1 mM Mg^2+, 2.5 mM probenecid, pH to 7.4), 180 μl of buffer or test compound was added to the well and incubated for 30 minutes. The Victor 2V injectors were used to inject 20 μl of 5-HT after obtaining 10 0.1-second baseline readings at 535 nm, followed by 150 readings. All test compounds were aliquoted in 100% DMSO at 10 mM and diluted to 1 mM in 50% DMSO, subsequent dilutions were made using buffer. Buffer was also used to dilute the 5-HT. Data were analysed using Microsoft Excel and GraphPad Prism, with the latter used to produce sigmoidal dose-response curves for each compound. The compound concentration that inhibited the 5-HT response by 50% was taken (IC50-M), and the results are shown in Table 3, as pIC50, being the negative log (to the base 10) of the measured IC50 values.

[2] = target: T2, 5-HT2B receptor in human tissues (Homo sapiens, UniProt P41595); assay: Human 5-HT2B receptor tissue based functional assay (human colon longitudinal smooth muscle); assay type: cell-based; details: antagonism of 5-HT effect on electrically stimulated human colon longitudinal muscle; pKB=log(CR-1)-log(antagonist concentration)
T2 construct: from tissue; host or cells: human colon longitudinal smooth muscle strips
T2 sequence (P41595 whole entry): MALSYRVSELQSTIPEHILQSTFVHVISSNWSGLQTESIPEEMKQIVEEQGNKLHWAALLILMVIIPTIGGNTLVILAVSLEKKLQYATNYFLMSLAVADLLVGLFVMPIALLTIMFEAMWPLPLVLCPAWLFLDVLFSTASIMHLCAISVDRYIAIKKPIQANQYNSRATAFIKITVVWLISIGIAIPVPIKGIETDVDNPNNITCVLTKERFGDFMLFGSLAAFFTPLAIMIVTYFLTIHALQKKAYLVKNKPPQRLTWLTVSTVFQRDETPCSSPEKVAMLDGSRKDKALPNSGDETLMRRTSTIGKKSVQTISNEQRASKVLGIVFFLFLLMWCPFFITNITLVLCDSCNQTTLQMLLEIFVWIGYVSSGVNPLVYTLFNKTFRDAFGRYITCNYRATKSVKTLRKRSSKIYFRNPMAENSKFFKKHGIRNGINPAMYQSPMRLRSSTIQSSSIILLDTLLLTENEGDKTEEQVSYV
Protocol: An in vitro functional assay, using human colon smooth muscle, was carried out to determine the affinity of the test compounds at the 5-HT2B receptor in human tissues. Sections of human colon were cut open along their longitudinal axis. The sections were pinned out flat and the mucosa carefully removed using sharp dissecting scissors. Once the mucosa was removed, the section was turned over to reveal the three taenia coli (taenia mesencolica, taenia omentalis and taenia libera) and the muscle bands that lie between them. Longitudinal muscle strips (2 mm wide by 20 mm long) were then cut from the tissue between the taenia coli and suspended between stainless steel hooks in organ chambers containing oxygenated (95% O2/5% CO2) Krebs solution at 37° C. The composition of the Krebs solution was as follows: NaCl (118.2 mM), KCl (4.69 mM), MgSO4.7H2O (1.18 mM), KH2PO4 (1.19 mM), glucose (11.1 mM), NaHCO3 (25.0 mM), CaCl2.6H2O (2.5 mM). Tissues were placed under a load equivalent to 10 mN and left to equilibrate for a period of at least 60 minutes. Responses were recorded using isometric transducers coupled to an Apple Macintosh computer via a MacLab interface. After 60 minutes, the longitudinal muscle sections of the human colon were stimulated electrically (sub-maximal voltage and frequency with 60s between successive stimulations) using parallel platinum wire electrodes and a Multistim D330 pulse stimulator. Upon electrical stimulation, the strips of human colon longitudinal smooth muscle responded with a rapid contraction. Once the response to electrical stimulation had stabilised (stimulated responses differed by no more than 10%), the strips were exposed to increasing concentrations of 5-HT (1×10^−9 to 1×10^−5M), in the absence or presence of test compounds (1×10^−7 to 1×10^−5M, incubated for 30 minutes). To determine the affinity of the compounds, the concentration of 5-HT required to produce half-maximal effects (EC50) was calculated in the absence and presence of test compound. The antagonist affinity was calculated by dividing the EC50 for 5-HT in the presence of antagonist by the EC50 for 5-HT in the absence of antagonist to yield a concentration ratio (CR). The results are shown in table 2 below as a pKB value, which is calculated as follows: pKB=log(CR−1)−log(antagonist concentration). This approach follows that set out in Kenakin, T. P. Pharmacologic analysis of drug-receptor interaction. Raven Press, New York, 2nd Edition.

T1 sequence (P41595 whole entry): as above

SMILES	IC50 [1] [nM]	Kb [2] [nM]	melting point [°C]
COc1ccc2ccccc2c1-c1coc(N)n1 [Compound 17, 4-(2-methoxy-naphthalen-1-yl)-oxazol-2-ylamine]	< 10	< 10	–
Nc1nc(-c2cccc3ccccc23)co1 [Compound 1, 2-amino-4-(naphth-1-yl)oxazole]	< 100	< 100	155 to 162
Cc1ccc2ccccc2c1-c1coc(N)n1 [Compound 6, 2-amino-4-(2′-methylnaphth-1-yl)oxazole]	< 100	< 100	–
CC(C)c1nc(N)oc1-c1cccc2ccccc12 [Compound 7, 2-amino-4-isopropyl-5-(naphth-1-yl)oxazole]	< 10	< 10	127 to 129
CC(C)c1nc(N)oc1-c1ccc(F)c2ccccc12 [Compound 31, 2-amino-5-(4′-fluoronaphth-1-yl)-4-isopropyloxazole]	< 10	< 100	141
